Molecules are shown by their SMILES.

The source of these data is patent US11000033B2, “Ketone or oxime compound, and herbicide” (NISSAN CHEMICAL CORPORATION, priority 2014, dated 2021).

Format in all cases: in vivo
One data set relates to beet. The data set can be described thus: Test Example 5: effect on crop by foliage application, plastic box (symbol f). The following applies: 320 g/ha, 3 weeks after application. The method, boiled down:
(§1)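 Greenhouse test at 25° C. to 30° C. Seeds of crops and weeds were spot-sown in boxes of sterilized diluvial soil under roughly 1.5 cm soil cover, then grown for foliage treatment.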

In another data set the test system is corn. The data set can be described thus: Test Example 5: effect on crop by foliage application, plastic box (symbol c). The following applies: 320 g/ha, 3 weeks after application. Summed up:
as §1

Data set [1] has as its system wheat. The data set can be described thus: Test Example 4: effect on crop by soil treatment (symbol e). The settings on record: application herbicide amount 320 g/ha. The method, boiled down: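 Plants are raised in a greenhouse (25° C. to 30° C.) from spot-sown seed, which sits under about 1.5 cm of sterilized diluvial soil in a box shared with weed species.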
The subject of the next data set is Alopecurus myosuroides. The data set can be described thus: Test Example 5: herbicidal effect by foliage application, plastic box (symbol J). The following applies: 320 g/ha, 3 weeks after application. Summed up: (§2)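 Herbicide, formulated as an emulsion and diluted in water, is sprayed onto the aerial parts of 14-day seedlings. These were grown at 25° C. to 30° C. in sterilized diluvial soil; effects are graded after 3 weeks.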

Data set [2] has as its system wheat. The data set is described as follows: Test Example 5: effect on crop by foliage application, plastic box (symbol e). The following applies: 320 g/ha, 3 weeks after application. The method, boiled down:
as §1

Data set [3] deals with Echinochloa oryzacola Vasing. The data set can be described thus: Test Example 2: herbicidal activity, application during weed generation in submerged conditions (symbol A). The following applies: Table 23; application herbicide amount 320 g/ha; grade 0-5 by criteria of Test Example 1. The method, boiled down: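 Scoring of herbicidal effect took place 3 weeks after treatment, using the criteria of the earlier test. Treatment was water-surface application of diluted emulsifiable compound at a set dose. Plants were at one- to two-leaf stage in submerged alluvial soil (4 cm depth), greenhouse 25-30° C.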

For the next data set, the system named is Leptochloa chinensis. The data set is described as follows: Test Example 3: herbicidal effect by foliage application, Wagner pot (symbol D). The following applies: application herbicide amount 320 g/ha. The method, boiled down: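 Foliar spray of a water-diluted emulsion at a predetermined herbicide amount, applied to 14-day-old plants. Seedlings were raised in flooded alluvial soil (0.1–0.5 cm water) at 25–30 °C in a greenhouse. Injury was rated after 3 weeks against fixed criteria.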

A further data set concerns rice plant. The data set is described as follows: Test Example 5: effect on crop by foliage application, plastic box (symbol b). The following applies: 320 g/ha, 3 weeks after application. The method, boiled down:
as §1

Another data set deals with Amaranthus retroflexus. The data set can be described thus: Test Example 4: herbicidal effect by soil treatment (symbol N). The following applies: application herbicide amount 320 g/ha. The method, boiled down: (§3)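 Seeds were sown in sterilized diluvial soil, covered with about 1.5 cm of soil, and the soil surface was sprayed with a water-diluted emulsion of the compound at a predetermined rate. Plants grew in a greenhouse at 25° C. to 30° C.; effects were scored visually 3 weeks after application.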

In data set [4] the test system is Setaria viridis. The data set is described as follows: Test Example 5: herbicidal effect by foliage application, plastic box (symbol G). The following applies: 320 g/ha, 3 weeks after application. The method, boiled down:
as §2

Data set [5] has as its system Setaria viridis. The data set can be described thus: Test Example 4: herbicidal effect by soil treatment (symbol G). The settings on record: application herbicide amount 320 g/ha. The method, boiled down:
as §3

For `Cc1cc(C)c(C2=C(O)CC(CC(=O)C3CC3)C2=O)c(C)c1` (centres unmarked) [2-017], in the data set with beet, the “f: beet, effect on crop grade” value is reported as 0 (Herbicidal ratio of 5% or lower (almost no effect)). Besides, the “c: corn, effect on crop grade” value with corn is 2 (Herbicidal ratio of 20% or higher and lower than 40%). Also, the “e: wheat, effect on crop grade” value with wheat [1] and with wheat [2] was 0 (Herbicidal ratio of 5% or lower (almost no effect)) in each case. In the data set with Alopecurus myosuroides, the “J: Alopecurus myosuroides, herbicidal effect grade” value (“J: Alopecurus myosuroides” below) was 4 (Herbicidal ratio of 70% or higher and lower than 90%). For the same compound, the “Herbicidal effect grade, A: Echinochloa oryzacola Vasing.” value in data set [3] is given as 5 (Herbicidal ratio of 90% or more (almost completely withered)). Further, the “herbicidal effect on D (Leptochloa chinensis), grade 0-5” value (shortened to “herbicidal effect on D”) with Leptochloa chinensis was 5 (Herbicidal ratio of 90% or more (almost completely withered)). The “b: directly sowed rice plant, effect on crop grade” value (“b: directly sowed rice plant” below) in the data set on rice plant is 5 (Herbicidal ratio of 90% or more (almost completely withered)). Besides, the “N: Amaranthus retroflexus, herbicidal effect grade” value (“N: Amaranthus retroflexus” below) with Amaranthus retroflexus was 0 (Herbicidal ratio of 5% or lower (almost no effect)). The “G: Setaria viridis, herbicidal effect grade” value (shortened to “G: Setaria viridis”) in the data set with Setaria viridis [4] and in the data set with Setaria viridis [5] was 5 (Herbicidal ratio of 90% or more (almost completely withered)) in each case.
On to `CCC(=O)CCC1CC(O)=C(c2c(C)cc(C)cc2C)C1=O` (centres unmarked) [5-001], for which the “c: corn, effect on crop grade” value in the data set on corn was 2 (Herbicidal ratio of 20% or higher and lower than 40%). Moreover, the “e: wheat, effect on crop grade” value with wheat [1] and in the data set with wheat [2] was 0 (Herbicidal ratio of 5% or lower (almost no effect)) in each case. The “J: Alopecurus myosuroides” value in the data set with Alopecurus myosuroides is on record as 5 (Herbicidal ratio of 90% or more (almost completely withered)). Further, the “Herbicidal effect grade, A: Echinochloa oryzacola Vasing.” value in data set [3] was 0 (Herbicidal ratio of 5% or lower (almost no effect)). Moreover, the “herbicidal effect on D” value with Leptochloa chinensis was 3 (Herbicidal ratio of 40% or higher and lower than 70%). In addition, in the data set on rice plant, the “b: directly sowed rice plant” value was 4 (Herbicidal ratio of 70% or higher and lower than 90%). The “N: Amaranthus retroflexus” value in the data set on Amaranthus retroflexus was 0 (Herbicidal ratio of 5% or lower (almost no effect)). The “G: Setaria viridis” value in the data set on Setaria viridis [4] was 3 (Herbicidal ratio of 40% or higher and lower than 70%); with Setaria viridis [5] it was 0 (Herbicidal ratio of 5% or lower (almost no effect)).
With `CC(=O)CC1CC(OC(=O)C(C)(C)C)=C(c2c(C)cc(C)cc2C)C1=O` (centres unmarked) [2-018], the “f: beet, effect on crop grade” value in the data set on beet is on record as 0 (Herbicidal ratio of 5% or lower (almost no effect)). The “c: corn, effect on crop grade” value with corn is 0 (Herbicidal ratio of 5% or lower (almost no effect)). Further, the “e: wheat, effect on crop grade” value in the data set on wheat [1] and in the data set on wheat [2] was 0 (Herbicidal ratio of 5% or lower (almost no effect)) each time. For the same compound, the “J: Alopecurus myosuroides” value in the data set with Alopecurus myosuroides is 1 (Herbicidal ratio of 5% or higher and lower than 20%). In addition, the “Herbicidal effect grade, A: Echinochloa oryzacola Vasing.” value in data set [3] is 4 (Herbicidal ratio of 70% or higher and lower than 90%). In addition, in the data set with Leptochloa chinensis, the “herbicidal effect on D” value was 5 (Herbicidal ratio of 90% or more (almost completely withered)). The “b: directly sowed rice plant” value in the data set on rice plant was 2 (Herbicidal ratio of 20% or higher and lower than 40%). For the same compound, the “N: Amaranthus retroflexus” value in the data set on Amaranthus retroflexus is 3 (Herbicidal ratio of 40% or higher and lower than 70%). The “G: Setaria viridis” value in the data set on Setaria viridis [4] was 1 (Herbicidal ratio of 5% or higher and lower than 20%); with Setaria viridis [5] it was 5 (Herbicidal ratio of 90% or more (almost completely withered)).
